Measured values reported in article PMC11879280, “Antimicrobial activity of peptoids against Metallo-β-lactamase-producing Klebsiella pneumoniae, Acinetobacter baumannii, Pseudomonas aeruginosa, and other WHO priority pathogens, including Candida auris” (Journal of Applied Microbiology, 2025).
Where two headings read alike, the source gives them in different places. Square brackets hold non-standard residues; d marks the D form. Ends that are not written are not given here. Peptide text beside a SMILES is read from it. Nspe(4-Br) = C[C@H](NCC(=O)O)c1ccc(Br)cc1; Nlys = NCCCCNCC(=O)O

What was measured:
C. auris strains = settings: two C. auris strains
Procedure: Briefly, bacteria were suspended in cation-adjusted Mueller–Hinton broth (CAMHB; Oxoid, UK) for antibiotics, or MHB (Oxoid, UK) for peptidomimetics to obtain 5 × 10^5 colony forming unit (CFU) ml^−1. […] Positive controls contained only microbes, and blanks contained only media. Microbial suspensions (100 µl) were added to wells, plates wrapped, and incubated at 37°C, 120 rpm for 16–20 h. After incubation, suspensions were removed, log10 diluted, and plated on Trypticase Soya Agar with phosphatidylcholine and Tween 80 to determine minimum bactericidal or fungicidal concentration (MBC or MFC). […] Geometric mean MIC of the peptoids were calculated to evaluate the broad overview of antimicrobial activity across the pathogens.
The therapeutic indices (TIs) of the compounds were calculated with the use of following formula: […]

C. auris CBS12373 = test: Broth microdilution MIC; assay type: cell-based, Candida auris
A. baumannii 006 = system: A. baumannii 006
Method in brief: (§1)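 Bacteria were suspended at 5 × 10^5 CFU ml^−1 in CAMHB for antibiotics or MHB for peptidomimetics, then incubated at 37°C, 120 rpm for 16–20 h. Suspensions were log10 diluted and plated on Trypticase Soya Agar with phosphatidylcholine and Tween 80 for MBC.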

K. pneumoniae JIE4212 = system: K. pneumoniae JIE4212
Method in brief: as §1

E. coli 0011 = system: E. coli 0011
Method in brief: as §1

A. baumannii 007 = system: A. baumannii 007
Method in brief: as §1

En. cloacae 001 = system: En. cloacae 001
Method in brief: as §1

A. baumannii 008 = system: A. baumannii 008
Method in brief: as §1

S. aureus 38 = system: S. aureus 38
Method in brief: as §1

A. baumannii ATCC 19 606 = system: A. baumannii ATCC 19 606
Method in brief: as §1

E. coli 0015 = system: E. coli 0015
Method in brief: as §1

P. aeruginosa 216 = system: P. aeruginosa 216
Method in brief: as §1

E. coli 005 = system: E. coli 005
Method in brief: as §1

En. cloacae 005 = system: En. cloacae 005
Method in brief: as §1

En. cloacae 003 = system: En. cloacae 003
Method in brief: as §1

S. aureus 117 = system: S. aureus 117
Method in brief: as §1

K. pneumoniae JIE2713 = system: K. pneumoniae JIE2713
Method in brief: as §1

P. aeruginosa AR-1270 = system: P. aeruginosa AR-1270
Method in brief: as §1

P. aeruginosa 33 = system: P. aeruginosa 33
Method in brief: as §1

[1] = system: horse red blood cells (RBCs); test: Haemolysis assay; assay type: cell-based
Procedure: The haemolytic activity of the peptidomimetics was performed to determine mammalian cell safety. This assay used horse red blood cells (RBCs) (Sigma–Aldrich, USA) as described previously (Willcox et al. [2008], Chongsiriwatana et al. [2017], Yasir et al. [2019b]). RBCs were washed three times with PBS at 470 g for 5 min. Peptoids (0.5–250 μg ml^−1) were prepared in PBS and added to washed RBCs, then incubated at 37°C for 4 h. After incubation, cells were centrifuged at 1057 g for 10 min, and the supernatant’s OD at 540 nm was measured for lysis. PBS-only RBCs served as the negative control (no haemolysis), and Milli-Q water-treated RBCs as the positive control (100% lysis). Percent haemolysis was calculated as: (ODT − ODNC)/(ODPC − ODNC) × 100, where ODT, ODNC, and ODPC are the absorbances of the test, negative, and positive controls, respectively. This experiment was performed in triplicate.

[2] = CBS 12 373, RPMI 1640 with MOPS, 5 × 10^3 CFU ml^−1, ≥90% reduction (≥50% for fluconazole)
[3] = A. baumannii 006, MHB (melimine/Mel4 with 0.2% BSA, 0.01% acetic acid), mean MIC
[4] = K. pneumoniae JIE4212, MHB (melimine/Mel4 with 0.2% BSA, 0.01% acetic acid), mean MIC
[5] = E. coli 0011, MHB (melimine/Mel4 with 0.2% BSA, 0.01% acetic acid), mean MIC
[6] = A. baumannii 007, MHB (melimine/Mel4 with 0.2% BSA, 0.01% acetic acid), mean MIC
[7] = En. cloacae 001, MHB (melimine/Mel4 with 0.2% BSA, 0.01% acetic acid), mean MIC
[8] = A. baumannii 008, MHB (melimine/Mel4 with 0.2% BSA, 0.01% acetic acid), mean MIC
[9] = S. aureus 38, MHB (melimine/Mel4 with 0.2% BSA, 0.01% acetic acid), mean MIC
[10] = A. baumannii ATCC 19 606, MHB (melimine/Mel4 with 0.2% BSA, 0.01% acetic acid), mean MIC
[11] = E. coli 0015, MHB (melimine/Mel4 with 0.2% BSA, 0.01% acetic acid), mean MIC
[12] = P. aeruginosa 216, MHB (melimine/Mel4 with 0.2% BSA, 0.01% acetic acid), mean MIC
[13] = E. coli 005, MHB (melimine/Mel4 with 0.2% BSA, 0.01% acetic acid), mean MIC
[14] = En. cloacae 005, MHB (melimine/Mel4 with 0.2% BSA, 0.01% acetic acid), mean MIC
[15] = En. cloacae 003, MHB (melimine/Mel4 with 0.2% BSA, 0.01% acetic acid), mean MIC
[16] = S. aureus 117, MHB (melimine/Mel4 with 0.2% BSA, 0.01% acetic acid), mean MIC
[17] = K. pneumoniae JIE2713, MHB (melimine/Mel4 with 0.2% BSA, 0.01% acetic acid), mean MIC
[18] = P. aeruginosa AR-1270, MHB (melimine/Mel4 with 0.2% BSA, 0.01% acetic acid), mean MIC
[19] = P. aeruginosa 33, MHB (melimine/Mel4 with 0.2% BSA, 0.01% acetic acid), mean MIC
[20] = horse RBCs in PBS, 37°C, 4 h, OD 540 nm, triplicate, best fit curve
[21] = horse RBCs in PBS, 37°C, 4 h, value in brackets

C[C@@H](c1ccc(Br)cc1)N(CC(=O)N(CCCCN)CC(=O)N(CC(=O)N(CC(=O)N(CCCCN)CC(N)=O)[C@@H](C)c1ccc(Br)cc1)[C@@H](C)c1ccc(Br)cc1)C(=O)CN(C(=O)CNCCCCN)[C@@H](C)c1ccc(Br)cc1 [TM14] (H-[Nlys][Nspe(4-Br)][Nspe(4-Br)][Nlys][Nspe(4-Br)][Nspe(4-Br)][Nlys]-NH2)
Geometric mean MICCA (C. auris strains): 7.8 µg/mL
MIC against C. auris (C. auris CBS12373; [2]): 3.9 µg/mL
MIC against C. auris (C. auris CBS12373; CBS12373): 2.9 µM
MIC of peptidomimetics (A. baumannii 006; 006): 11.4 µM
MIC of peptidomimetics (A. baumannii 006; [3]): 15.6 µg/mL
MIC of peptidomimetics (K. pneumoniae JIE4212; JIE4212): 23.0 µM
MIC of peptidomimetics (K. pneumoniae JIE4212; [4]): 31.3 µg/mL
MIC of peptidomimetics (E. coli 0011; 0011): 23.0 µM
MIC of peptidomimetics (E. coli 0011; [5]): 31.3 µg/mL
MIC of peptidomimetics (A. baumannii 007; 007): 23.0 µM
MIC of peptidomimetics (A. baumannii 007; [6]): 31.3 µg/mL
MIC of peptidomimetics (En. cloacae 001): 11.5 µM
MIC of peptidomimetics (En. cloacae 001; [7]): 15.6 µg/mL
MIC of peptidomimetics (A. baumannii 008; 008): 23.0 µM
MIC of peptidomimetics (A. baumannii 008; [8]): 31.3 µg/mL
MIC of peptidomimetics (S. aureus 38; 38): 2.9 µM
MIC of peptidomimetics (S. aureus 38; [9]): 3.9 µg/mL
MIC of peptidomimetics (A. baumannii ATCC 19 606; [10]): 31.3 µg/mL
MIC of peptidomimetics (A. baumannii ATCC 19 606; ATCC 19): 23.0 µM
MIC of peptidomimetics (E. coli 0015; 0015): 23.0 µM
MIC of peptidomimetics (E. coli 0015; [11]): 31.3 µg/mL
MIC of peptidomimetics (P. aeruginosa 216; 216): 11.5 µM
MIC of peptidomimetics (P. aeruginosa 216; [12]): 15.6 µg/mL
MIC of peptidomimetics (E. coli 005; 005): 23.0 µM
MIC of peptidomimetics (E. coli 005; [13]): 31.3 µg/mL
MIC of peptidomimetics (En. cloacae 005): 45.9 µM
MIC of peptidomimetics (En. cloacae 005; [14]): 62.5 µg/mL
MIC of peptidomimetics (En. cloacae 003): 45.9 µM
MIC of peptidomimetics (En. cloacae 003; [15]): 62.5 µg/mL
MIC of peptidomimetics (S. aureus 117; 117): 5.7 µM
MIC of peptidomimetics (S. aureus 117; [16]): 7.8 µg/mL
MIC of peptidomimetics (K. pneumoniae JIE2713; JIE2713): 5.7 µM
MIC of peptidomimetics (K. pneumoniae JIE2713; [17]): 7.8 µg/mL
MIC of peptidomimetics (P. aeruginosa AR-1270; AR-1270): 45.9 µM
MIC of peptidomimetics (P. aeruginosa AR-1270; [18]): 62.5 µg/mL
MIC of peptidomimetics (P. aeruginosa 33; 33): 11.5 µM
MIC of peptidomimetics (P. aeruginosa 33; [19]): 15.6 µg/mL
HD10 (10% haemolytic dose) [1]: 7.0 µmol/L
HD50 (50% haemolytic dose) [1]: 17.6 µmol/L
HD10 (10% haemolytic dose) ([1]; red cells of horse, 4 h): 9.6 µg/mL
HD50 (50% haemolytic dose) ([1]; red cells of horse, 4 h): 24 µg/mL

KNKRKRRRRRRGGRRRR [Mel4]
Geometric mean MICCA (C. auris strains): 22.1 µg/mL
MIC against C. auris (C. auris CBS12373; [2]): 3.9 µg/mL
MIC of peptidomimetics (A. baumannii 006; [3]): 62.5 µg/mL
MIC of peptidomimetics (K. pneumoniae JIE4212; [4]): 250 µg/mL
MIC of peptidomimetics (E. coli 0011; [5]): 62.5 µg/mL
MIC of peptidomimetics (A. baumannii 007; [6]): 250 µg/mL
MIC of peptidomimetics (En. cloacae 001; [7]): 250 µg/mL
MIC of peptidomimetics (A. baumannii 008; [8]): 250 µg/mL
MIC of peptidomimetics (S. aureus 38; [9]): 62.5 µg/mL
MIC of peptidomimetics (A. baumannii ATCC 19 606; [10]): 125 µg/mL
MIC of peptidomimetics (E. coli 0015; [11]): 62.5 µg/mL
MIC of peptidomimetics (P. aeruginosa 216; [12]): 250 µg/mL
MIC of peptidomimetics (E. coli 005; [13]): 250 µg/mL
MIC of peptidomimetics (En. cloacae 005; [14]): 250 µg/mL
MIC of peptidomimetics (En. cloacae 003; [15]): 250 µg/mL
MIC of peptidomimetics (S. aureus 117; [16]): 62.5 µg/mL
MIC of peptidomimetics (K. pneumoniae JIE2713; [17]): 250 µg/mL
MIC of peptidomimetics (P. aeruginosa AR-1270; [18]): 500 µg/mL
MIC of peptidomimetics (P. aeruginosa 33; [19]): 62.5 µg/mL
HD10 (10% haemolytic dose) [1, 20]: > 256 µg/mL
HD50 (50% haemolytic dose) [1, 20]: > 256 µg/mL
HD10 (10% haemolytic dose) [1, 21]: > 109 µmol/L
HD50 (50% haemolytic dose) [1, 21]: > 109 µmol/L
